In one experiment the target is T1, LipA (Pseudomonas sp. 42A2, UniProt B3GVV8).
T1 construct: secreted lipase, co-expressed with foldase gene lipH of 42A2 in pBBR1MCS, host P. aeruginosa PABST7.1 (PAO1 lipA lipH deletion); crude culture supernatant, adsorbed on EP100, MP1000 or Celite 545
The experiment is described as follows: transesterification to FAMEs, TLC, immobilized crude enzyme. In kind it is biochemical. The conditions noted are these: methanol 15% w/w, water 10% w/w, 30°C, 24 h; triolein of 65% purity (with di- and monolein); FAMEs seen with EP100 and Celite 545 preparations.

The next experiment deals with T2, LipC (Pseudomonas sp. 42A2, UniProt B3GVV9).
T2 construct: secreted lipase, co-expressed with foldase gene lipH of 42A2 in pBBR1MCS, host P. aeruginosa PABST7.1 (PAO1 lipA lipH deletion); crude culture supernatant, adsorbed on EP100, MP1000 or Celite 545
T2 sequence (B3GVV9 24-309): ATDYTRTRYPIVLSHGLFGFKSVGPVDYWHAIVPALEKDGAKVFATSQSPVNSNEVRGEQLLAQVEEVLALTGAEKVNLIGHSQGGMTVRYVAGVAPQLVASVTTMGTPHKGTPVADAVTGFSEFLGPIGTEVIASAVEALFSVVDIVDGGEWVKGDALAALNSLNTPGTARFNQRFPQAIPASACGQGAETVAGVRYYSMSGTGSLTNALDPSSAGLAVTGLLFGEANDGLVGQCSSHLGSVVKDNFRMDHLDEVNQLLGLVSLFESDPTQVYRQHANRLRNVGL
Described as above. The class given is biochemical. The conditions noted are these: methanol 15% w/w, water 10% w/w, room temperature, 24 h; triolein of 65% purity (with di- and monolein); FAMEs seen with EP100 and MP1000 preparations.

T1 sequence (B3GVV8 27-311): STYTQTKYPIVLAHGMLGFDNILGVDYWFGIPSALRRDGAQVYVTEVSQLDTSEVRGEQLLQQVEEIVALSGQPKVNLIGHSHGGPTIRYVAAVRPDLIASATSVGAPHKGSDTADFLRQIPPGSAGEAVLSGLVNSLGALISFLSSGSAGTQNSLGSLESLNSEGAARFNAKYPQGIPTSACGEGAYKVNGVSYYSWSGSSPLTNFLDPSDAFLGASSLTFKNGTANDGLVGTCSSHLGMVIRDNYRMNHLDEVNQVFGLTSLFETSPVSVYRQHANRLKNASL

As to `CCCCCCCC/C=C\CCCCCCCC(=O)OCC(COC(=O)CCCCCCC/C=C\CCCCCCCC)OC(=O)CCCCCCC/C=C\CCCCCCCC` [triolein], the “transesterification to FAMEs, TLC, immobilized crude enzyme” value at LipA is “LipA, LipC and LipCmut produced a visible FAMEs spot when analyzed by TLC”; at LipC, “LipA, LipC and LipCmut produced a visible FAMEs spot when analyzed by TLC”.

Values taken from PMC4003287, “Fast and economic immobilization methods described for non-commercial Pseudomonas lipases” (BMC Biotechnology, 2014).
